According to US7456197B2, “Pyridinium cationic lipids as gene transfer agents” (The Texas A&M University System, priority 2003, dated 2008):
Entries after “also recorded” stand apart in the source; their conditions may differ.

How the values were obtained:
[1] = test system: lung cancer cell line NCI-H23; assay: Luciferase (pGL3) transfection efficiency of lipoplexes, NCI-H23; type: cell-based, human; details: exposure from one hour to three hours; data not shown
[2] = Critical (phase transition) temperature Tc by differential scanning calorimetry; type: physicochemical
Procedure: General. Melting points for the diols and the phase transition temperature Tc for the cationic lipids were determined by differential scanning calorimetry (DSC), using a TA-Instruments Q100 DSC, and a heating rate of 5° C./minute. The IR spectra were recorded on a Nicolet Avatar 360 FTIR spectrophotometer in the range 650-4000 cm^−1 using a ZnSe—attenuated total reflectance (ATR) accessory. The compounds were solved in a small amount of solvent (MeOH for the diols, CHCl3 for the lipids), and the resulted solutions were left to evaporate to dryness on the surface of the ZnSe crystals of the ATR accessory. The NMR spectra were recorded at ≈303 K with a Varian Inova spectrometer equipped with a 5 mm indirect detection probe, operating at 500 MHz for ^1H-NMR and at 125 MHz for ^13C-NMR. Chemical shifts are reported as δ values, using TMS as internal standard for proton spectra and the solvent resonance for carbon spectra. Assignments were made based on signal intensity, selective decoupling, COSY (^1H-^1H) and HETCOR (^1H-^13C) sequences. Elemental analyses were performed by combustion, using a Perkin Elmer 2400 Series II CHNS analyser.
(§1) Dioleoylphosphatidylethanolamine (DOPE), cholesterol (CHOL), N-(2,3-dioleoyloxypropyl)-N,N,N-trimethylammonium chloride (DOTAP) were commercial products. The purity of the lipids was checked by thin layer chromatography and also by differential scanning calorimetry (DSC), which was also used for determining the critical temperature Tc. For the preparation of the liposomes a protocol optimized for this type of compounds was adopted as follows. The cationic lipid (with or without helper lipid) was dissolved in chloroform/methanol (2/1, v/v) to reach a final concentration of 1 mM for the charged species. From this stock solution 50 μL were aliquoted in a 1 mL tube and the solvent was evaporated in a SpeedVac evaporator, under vacuum, for 1 h. The dried lipid film was prepared by removing the traces of organic solvent in a dessicator, over Drierite®, under vacuum, overnight. The film was hydrated with 500 μL sterile phosphate buffer saline (PBS) the tube was purged with sterile N2, and vortexed for 1 minute. The liposomes were generated by sonicating the tube in a water bath sonicator for 5-30 minutes at 62° C. and at 37° C. for DOTAP. After sonication the preparations were allowed to reach room temperature.
Materials and Methods. Melting points for the diols, acetates and ketals were determined on a Boetius heating plate microscope and are uncorrected. For the cationic lipids 21 and 25 the phase transition temperature Tc was determined by differential scanning calorimetry (DSC), using a TA-Instruments Q100 DSC, and a heating rate of 5° C./minute. The IR spectra were recorded on a Nicolet Avatar 360 FTIR spectrophotometer, in the range 650-4000 cm^−1, using a ZnSe—attenuated total reflectance (ATR) accessory. The compounds were solved in a small amount of solvent (MeOH for the diols, CHCl3 for the esters), the resulted solutions being left to evaporate to dryness on the surface of the ZnSe crystals of the ATR accessory. This technique was imposed by the poor results obtained in transmission mode for some of the compounds, due to the lack of crystallization, hygroscopicity and other problems related with working with KBr pellets. The NMR spectra were recorded at ≈303 K with a Varian Gemini 300BB spectrometer operating at 300 MHz for ^1H and at 75 MHz for ^13C. Chemical shifts are reported as δ values, using TMS as internal standard for proton spectra and the solvent resonance for carbon spectra: 77.00 ppm in CDCl3, 39.50 ppm in DMSO-d6, the line from 123.50 ppm in pyridine-d5, 62.80 ppm in nitromethane-d3, 30.10 ppm in dimethylformamide-d7. Assignments were made based on signal intensity, selective decoupling and COSY (^1H-^1H) and HETCOR (^1H-^13C) sequences. Nitrogen elemental analysis was performed by combustion, mixing the samples with small amounts of quartz sand.

[3] = test system: cancer cell line NCI-H23; assay: WST-1 viability assay of transfected cells; type: cell-based, human
Procedure: FIG. 6. Viability assay results for the cancer cell line NCI-H23 transfected with 5AMyr-5EMyr and DOTAP (Cl^−)-based lipoplexes. The other characteristics were the same as in the transfection experiment represented in FIG. 5.
In order to assess the cytotoxicity associated with every anion, a WST-1^28 viability assay was conducted in parallel.

[4] = test system: lung cancer cell line NCI-H23; assay: Luciferase (pGL3) transfection efficiency of lipoplexes, NCI-H23; type: cell-based, human; details: 5Myr/Chol 1:1, PBS, sonicated two sequences of 15 minutes, FIG. 5
Procedure: The three series of cationic lipids newly synthesized were assessed for their transfection efficiency in vitro, using the experimental conditions optimized in a previous study.^23 Essentially the cationic lipids were mixed with cholesterol at a 1:1 molar ratio, dissolved in chloroform/methanol and dried under vacuum to generate a lipid film. The dried lipid film was hydrated with sterile phosphate buffer isotonic saline with pH=7.4 (PBS) and sonicated to yield cationic liposomes. The resulting liposomal solution was allowed to react with a DNA solution to form the final cationic lipid-DNA complexes (lipoplexes), which were assessed for transfection efficiency using different cell cultures. We used a pGL3 plasmid (Promega, Madison, Wisc.), encoding a firefly luciferase gene under the control of the constitutively active SV40 promoter as the reporter for the transfection efficiency. An optimal^23 electrostatic charge ratio cationic lipid/DNA of 2:1 was used in all preparations. […] The ability of these new cationic lipids to generate relatively small cationic liposomes could be attributed to the relatively large curvature radius induced in the bilayer by the bulky pyridinium cationic head.
as §1
For generating the lipoplexes, 1.4-2.8 μL plasmid DNA solution (0.5 μg/μL) was diluted with 100 μL Optimem®. A liposome solution was prepared separately by diluting the initial liposomal stock solution (0.1 mM in cationic lipid) with Optimem® in specified proportions, to reach a final volume of 50 μL. Over this liposome solution 50 μL of the DNA stock solution was added, the tube was incubated for 30 minutes at room temperature and then the content diluted with 500 μL Optimem® (final volume of the lipoplex stock solution: 600 μL).
The lipoplexes was tested for their transfection properties over five different cancer cell lines—breast carcinoma (MCF-7 and MDA-Mb231), lung carcinoma (NCI-H23), prostate carcinoma (DU-145) and brain carcinoma (SWB-95). The cells were maintained in 10% fetal bovine serum (FBS)—enriched RPMI 1640 at 37° C. and 5% CO2 in a humidified atmosphere. Twenty-four hours prior to transfection the cells were transferred in 96-wells microtiter plate at a density of 20,000 cells/well. Each well received 100 μL medium and the plate was incubated in the same conditions. All experiments were done in triplicate or quadruplicate.
Immediately before transfection the medium was removed from each well and the cells were briefly washed with 200 μL sterile PBS. After removal of the PBS each well received 100 μL lipoplex stock solution and the plate was placed in the incubator for 1 hour. Then, 100 μL medium was added to each well and the plate was incubated for 24 hours. […]

[5] = test system: HeLa cells (human carcinoma cell line ATCC No. CCL-2); assay: Luciferase (pGL3-Control) transfection efficiency, HeLa cells; type: cell-based; details: no helper lipid, DOTAP as reference
Procedure: Transfection experiments were carried out in vitro on HeLa cells (human carcinoma cell line ATCC No. CCL-2), using a pGL3-Control plasmid (Promega, Madison, Wisc.), which encodes the firefly luciferase reporter. The structurally related and commercially available DOTAP (2) mentioned earlier was chosen as reference.
HeLa cell line was obtained from ATCC, MD. The plasmid pGL3-control, encoding a firefly luciferase reporter was from Promega (Madison, Wisc.). As transfection reference we used N-[1-(2,3-dioleoyloxy)propyl]-N,N,N-trimethylammonium methylsulfate (DOTAP), obtained from Roche Molecular Biochemicals (Indianapolis, Ind.). The BCA protein assay kit was from Pierce (Rockford, Ill.).
All of the pyridinium cationic lipids, along with the DOTAP reference, were tested in triplicate in two independent assays. The pyridinium cationic lipids containing tetrafluoroborate (BF4^−) or perchlorate (ClO4^−) anion were dissolved in ethanol/chloroform. The lipid solution was evaporated to dryness using a Speedvac rotary evaporating device, under vacuum. Traces of solvents were removed from the lipid film by keeping the vials under vacuum for another 3 hours. Ultrapure water was added to the dry lipid film, so that a final 1 μg/μL concentration could be reached, and the lipid film was allowed to hydrate overnight. […]

SMILES | transfection efficiency on longer cell exposure to lipoplexes [1] | Tc (critical temperature), Pure ([2]; pure lipid) [°C] | Tc (critical temperature), With cholesterol (1:1 molar ratio) ([2]; with cholesterol, 1:1 molar ratio) [°C] | cytotoxicity (WST-1 viability) ([3]; NCI-H23 transfected with lipoplexes, Chol 1:1, FIG. 6) | cytotoxic effect on longer cell exposure to lipoplexes ([3]; exposure from one hour to three hours, data not shown) | transfection efficiency, counterion study [4] | Tc (phase transition temperature) ([2]; lipids 21 and 25, DSC, heating rate 5° C./minute) [°C] | transfection efficiency (in words) [5]
CCCCCCCCCCCCCC(=O)OCC(COC(=O)CCCCCCCCCCCCC)[n+]1c(C)cc(C)cc1C.[Cl-] [Lipid 5DMyr, 1-(1,3-dimyristoyloxypropane-2-yl)-2,4,6-trimethylpyridinium chloride] | higher transfection efficiencies | 76.3 | 81.2 | minimum cytotoxicity; also recorded: lower cytotoxic effect | without any visible cytotoxic effect | surpassed DOTAP in transfection efficiency | – | –
CCCCCCCCCCCCCCCC(=O)OCC(COC(=O)CCCCCCCCCCCCCCC)[n+]1c(C)cc(C)cc1C.F[B-](F)(F)F [Lipid 25AbP, 1-(1,3-Dipamitoyloxypropane-2-yl)-2,4,6-trimethylpyridinium tetrafluoroborate] | – | – | – | – | – | – | 70 | comparable with that of DOTAP
